Measurements taken from ChEMBL document CHEMBL1145457, “Structure-activity studies and analgesic efficacy of N-(3-pyridinyl)-bridged bicyclic diamines, exceptionally potent agonists at nicotinic acetylcholine receptors” (J Med Chem, 2007).
Activity calls are given as the source filed them. No cut-off for these calls is given here.

Experiments:
[1] = molecular target: Neuronal acetylcholine receptor; alpha4/beta2 (Homo sapiens, UniProt P17787+P43681); test: Agonist activity at […] in IMR-32cells assessed as calcium influx by FLIPR assay; format: functional
[2] = molecular target: Neuronal acetylcholine receptor; alpha4/beta2 (Rattus norvegicus, UniProt P09483+P12390); test: Displacement of [3H]cytisine from alpha-4-beta-2 in rat cerebral cortical membrane; format: cell membranes
[3] = tested on: Striatum; test: Agonist activity at rat striatal tissue assessed as dopamine release; format: functional
[4] = Drug level in Sprague-Dawley rat brain at 6.2 umol/kg, ip after 15 mins; format: ADME, organism-based; conditions: read-out: Drug uptake
[5] = Drug level in Sprague-Dawley rat plasma at 6.2 umol/kg, ip after 30 mins; format: ADME, organism-based
[6] = tested on: Rattus norvegicus; test: Antinociceptive effect in rat assessed as reduction of flinches up to 6.2 umol/kg, ip; format: functional, organism-based
[7] = tested on: Rattus norvegicus; test: Effect on reversal of allodynia in rat chug model at 19 umol/kg, ip; format: functional, organism-based
[8] = Drug level in Sprague-Dawley rat brain at 6.2 umol/kg, ip after 30 mins; format: ADME, organism-based; conditions: read-out: Drug uptake
[9] = Drug level in Sprague-Dawley rat plasma at 6.2 umol/kg, ip after 60 mins; format: ADME, organism-based
[10] = Drug levels in Sprague-Dawley rat plasma at 6.2 umol/kg, ip after 15 mins; format: ADME, organism-based
[11] = Drug level in Sprague-Dawley rat at 6.2 umol/kg, ip after 60 mins; format: ADME, organism-based; conditions: brain, read-out: Drug uptake
[12] = tested on: Mus musculus; test: Effect on head weaving in mouse at 6.2 umol/kg, ip; format: functional, organism-based
[13] = tested on: Rattus norvegicus; test: Antinociceptive effect on rat assessed as reduction of flinches up to 1.9 umol/kg, ip; format: functional, organism-based
[14] = tested on: Mus musculus; test: Induction of seizure in mouse at 62 umol/kg, ip; format: functional, organism-based
[15] = tested on: Mus musculus; test: Effect on hypolocomotion in mouse at 6.2 umol/kg, ip; format: functional, organism-based
[16] = tested on: Rattus norvegicus; test: Antinociceptive effect on rat assessed as increased latency to paw withdrawal in response to noxious thermal stimulus at 0.62 umol/kg, ip; format: functional, organism-based
[17] = tested on: Mus musculus; test: Effect on urination in mouse at 6.2 umol/kg, ip; format: functional, organism-based
[18] = species on record: Rattus norvegicus; test: Reversal of mechanically-stimulated hyperalgesia in spinal nerve ligated rat chung model; format: functional, organism-based
[19] = Rattus norvegicus, Striatum, read-out: EC50
[20] = Rattus norvegicus, Striatum, read-out: Log EC50 (converted)

Chain of Neuronal acetylcholine receptor; alpha4/beta2 (Homo sapiens, UniProt P17787+P43681) (P17787 whole entry): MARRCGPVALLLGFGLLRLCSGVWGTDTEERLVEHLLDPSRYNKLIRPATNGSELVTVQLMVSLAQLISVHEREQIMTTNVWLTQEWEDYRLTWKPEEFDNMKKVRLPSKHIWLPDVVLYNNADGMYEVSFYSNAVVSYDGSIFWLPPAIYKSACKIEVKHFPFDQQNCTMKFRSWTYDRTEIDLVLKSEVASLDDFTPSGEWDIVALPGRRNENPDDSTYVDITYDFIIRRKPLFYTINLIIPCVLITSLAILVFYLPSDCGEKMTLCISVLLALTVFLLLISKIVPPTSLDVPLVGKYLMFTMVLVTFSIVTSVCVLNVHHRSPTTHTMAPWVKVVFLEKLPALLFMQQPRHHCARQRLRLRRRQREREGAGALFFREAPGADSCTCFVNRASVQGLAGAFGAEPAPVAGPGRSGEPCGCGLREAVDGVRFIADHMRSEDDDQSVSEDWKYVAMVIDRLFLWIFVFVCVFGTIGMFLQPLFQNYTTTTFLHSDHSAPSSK
Chain of Neuronal acetylcholine receptor; alpha4/beta2 (Homo sapiens, UniProt P17787+P43681) (P43681 whole entry): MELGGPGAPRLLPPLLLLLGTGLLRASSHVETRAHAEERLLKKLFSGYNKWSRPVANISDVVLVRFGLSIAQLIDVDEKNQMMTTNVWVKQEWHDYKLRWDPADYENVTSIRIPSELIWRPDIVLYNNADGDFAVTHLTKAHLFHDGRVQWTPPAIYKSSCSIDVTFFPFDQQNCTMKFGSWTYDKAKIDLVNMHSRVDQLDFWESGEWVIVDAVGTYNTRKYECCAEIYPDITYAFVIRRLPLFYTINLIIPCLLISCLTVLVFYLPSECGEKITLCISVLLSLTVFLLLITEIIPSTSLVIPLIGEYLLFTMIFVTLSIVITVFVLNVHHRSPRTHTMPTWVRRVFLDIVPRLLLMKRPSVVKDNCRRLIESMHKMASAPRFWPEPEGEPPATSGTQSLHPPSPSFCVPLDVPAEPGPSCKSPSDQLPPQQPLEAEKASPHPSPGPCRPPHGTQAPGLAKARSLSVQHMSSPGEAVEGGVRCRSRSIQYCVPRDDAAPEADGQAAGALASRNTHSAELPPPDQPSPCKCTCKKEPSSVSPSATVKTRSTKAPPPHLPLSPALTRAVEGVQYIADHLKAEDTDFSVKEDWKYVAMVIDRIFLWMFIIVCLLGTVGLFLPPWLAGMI
Chain of Neuronal acetylcholine receptor; alpha4/beta2 (Rattus norvegicus, UniProt P09483+P12390) (P09483 whole entry): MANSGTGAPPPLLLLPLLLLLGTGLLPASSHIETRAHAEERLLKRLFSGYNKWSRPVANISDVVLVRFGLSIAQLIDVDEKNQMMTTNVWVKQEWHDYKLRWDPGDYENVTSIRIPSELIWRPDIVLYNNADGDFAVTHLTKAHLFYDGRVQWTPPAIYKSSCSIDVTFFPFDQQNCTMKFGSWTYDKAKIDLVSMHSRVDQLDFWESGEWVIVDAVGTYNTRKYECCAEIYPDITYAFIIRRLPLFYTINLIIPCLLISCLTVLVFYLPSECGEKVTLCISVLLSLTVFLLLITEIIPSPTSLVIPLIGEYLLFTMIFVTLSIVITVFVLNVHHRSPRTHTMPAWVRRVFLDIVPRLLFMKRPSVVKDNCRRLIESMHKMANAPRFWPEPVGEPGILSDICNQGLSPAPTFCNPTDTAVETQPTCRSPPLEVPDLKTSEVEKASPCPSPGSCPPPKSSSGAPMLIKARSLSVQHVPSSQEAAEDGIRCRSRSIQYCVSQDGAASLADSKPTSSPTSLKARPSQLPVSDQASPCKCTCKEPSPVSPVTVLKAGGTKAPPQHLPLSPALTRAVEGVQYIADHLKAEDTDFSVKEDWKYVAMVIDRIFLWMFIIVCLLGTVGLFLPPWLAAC
Chain of Neuronal acetylcholine receptor; alpha4/beta2 (Rattus norvegicus, UniProt P09483+P12390) (P12390 whole entry): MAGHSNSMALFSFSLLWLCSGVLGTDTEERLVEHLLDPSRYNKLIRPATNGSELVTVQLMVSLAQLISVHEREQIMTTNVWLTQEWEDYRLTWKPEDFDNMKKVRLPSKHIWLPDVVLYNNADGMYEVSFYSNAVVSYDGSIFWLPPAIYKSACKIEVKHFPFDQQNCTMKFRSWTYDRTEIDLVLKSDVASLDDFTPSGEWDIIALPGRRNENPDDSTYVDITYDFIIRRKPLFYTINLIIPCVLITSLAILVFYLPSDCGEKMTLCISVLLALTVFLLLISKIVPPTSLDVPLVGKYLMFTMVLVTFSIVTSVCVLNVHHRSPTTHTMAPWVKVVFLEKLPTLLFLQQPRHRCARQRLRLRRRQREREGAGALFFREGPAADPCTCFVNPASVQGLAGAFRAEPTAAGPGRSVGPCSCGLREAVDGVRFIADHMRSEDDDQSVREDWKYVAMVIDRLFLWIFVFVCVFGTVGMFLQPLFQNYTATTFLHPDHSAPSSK

SMILES	EC50 ([1]; read-out: EC50) [nM]	Ki ([2]; read-out: Ki) [nM]	other results
c1cncc(N2CC3CNCC2C3)c1 (stereo not drawn)	1600	0.065	
FC(F)(F)c1cncc(N2C[C@H]3C[C@@H]2CN3)c1		490	
N#Cc1cncc(N2C[C@H]3C[C@@H]2CN3)c1	980	0.027	Log EC50 [3]: -9.1; EC50 ([3]; read-out: EC50): 0.8 nM
Clc1cc(N2C[C@H]3C[C@@H]2CN3)cnc1Cl	550	0.018	EC50 [3, 19]: 16 nM; EC50 [3, 20]: 16.2 nM
c1cncc(N2CC3CCC2CN3)c1 (stereo not drawn)	280	0.02	
N#Cc1cncc(N2C[C@@H]3C[C@H]2CN3)c1	24000	1.7	Ki ([2]; read-out: Log Ki (converted)): 1.62 nM; Log EC50 [3]: -7.64; EC50 ([3]; read-out: EC50): 23 nM
c1ncc(N2C[C@@H]3C[C@H]2CN3)cn1		0.95	
Clc1ccc(N2CC3CC2CCN3)cn1 (stereo not drawn)	7440	2.8	
Clc1ccc(N2C[C@H]3C[C@@H]2CN3)cn1	140	0.018	Log EC50 [3]: -8.6; EC50 ([3]; read-out: EC50): 2.5 nM
c1cncc(N2C[C@@H]3C[C@H]2CN3)c1	6400	0.15	EC50 [3, 19]: 138 nM; EC50 [3, 20]: 138 nM
Clc1cc(N2CC3CC2CN3)ncn1 (stereo not drawn)		52	
Cc1cc(N2C[C@H]3C[C@@H]2CN3)cnc1Cl	180	0.014	
COc1cc(N2C[C@H]3C[C@@H]2CN3)cnc1Cl	4300	0.1	
Clc1ccc(C2CC3CCC2N3)cn1 (stereo not drawn) [EPIBATIDINE]			EC50 [3, 19]: 0.83 nM; EC50 [3, 20]: 0.832 nM
Oc1cncc(N2C[C@H]3C[C@@H]2CN3)c1	2600	0.035	Log EC50 [3]: -8.24; EC50 ([3]; read-out: EC50): 5.7 nM
O=C(c1ccc(Cl)nc1)N1C[C@H]2C[C@@H]1CN2		590	
CN1C[C@@H]2C[C@H]1CN2c1ccc(Cl)nc1		1.3	
O=[N+]([O-])c1ccc(N2C[C@@H]3C[C@H]2CN3)cc1		67	
NC(=O)c1cncc(N2C[C@@H]3C[C@H]2CN3)c1	25000	24	

SMILES	EC50 ([1]; read-out: EC50) [nM]	Ki ([2]; read-out: Ki) [nM]	other results
c1ccc(N2C[C@@H]3C[C@H]2CN3)nc1		980	
Oc1cc(N2C[C@H]3C[C@@H]2CN3)cnc1Cl	3200	0.17	concentration at 0.25 h [4]: 29 ng/g; concentration at 0.5 h [5]: 289 ng/mL; Activity [6]: Active; Activity [7]: inactive; concentration at 0.5 h [8]: 22 ng/g; concentration at 1 h [9]: 131 ng/mL; concentration at 0.25 h [10]: 458 ng/mL; Log EC50 [3]: -8.42; EC50 ([3]; read-out: EC50): 3.8 nM; concentration at 1 h [11]: 10 ng/g
Clc1ccc(N2C[C@@H]3C[C@H]2CN3)cc1		22	
c1cnc2cc(N3C[C@H]4C[C@@H]3CN4)sc2c1		0.83	
Oc1cc(N2C[C@@H]3C[C@H]2CN3)cnc1Cl	35000	1.6	Log EC50 [3]: -7.3; EC50 ([3]; read-out: EC50): 51 nM
c1ccc2nc(N3C[C@@H]4C[C@H]3CN4)ccc2c1		4000	
Cc1cc(N2C[C@@H]3C[C@H]2CN3)sn1		4.9	
Clc1ccc(N2C[C@@H]3C[C@H]2CN3)cn1	450	0.1	Activity [12]: Active; Activity [13]: Active; Activity [14]: Active; Activity [15]: Active; Log EC50 [3]: -8.28; EC50 ([3]; read-out: EC50): 5.3 nM; Activity [16]: Active; Activity [17]: Active; Activity [18]: Active
COc1cncc(N2C[C@@H]3C[C@H]2CN3)c1	30000	0.53	Log EC50 [3]: -7.09; EC50 ([3]; read-out: EC50): 81 nM
CN1CCC[C@H]1c1cccnc1 [NICOTINE]			EC50 [3, 19]: 200 nM; EC50 [3, 20]: 200 nM
C[N+]1(C)CC2CC1CN2c1ccc(Cl)nc1 (stereo not drawn)	1500	0.2	
c1cncc(N2C[C@H]3C[C@@H]2CN3)c1	370	0.018	
O=[N+]([O-])c1cccc(N2C[C@@H]3C[C@H]2CN3)c1		600	
c1cnc2c(N3C[C@H]4C[C@@H]3CN4)csc2c1		280	
NCc1cncc(N2C[C@@H]3C[C@H]2CN3)c1	20000	140	
NC(=O)c1cncc(N2C[C@H]3C[C@@H]2CN3)c1	28000	0.83	EC50 [3, 19]: 30 nM; EC50 [3, 20]: 30.2 nM
Fc1cccc(N2C[C@@H]3C[C@H]2CN3)c1		250	
Cc1ccc(N2C[C@@H]3C[C@H]2CN3)cn1	1700	1.6	EC50 [3, 19]: 350 nM; EC50 [3, 20]: 347 nM
Nc1ccc(N2CC3CC2CN3)cn1 (stereo not drawn)	31000	20	

SMILES	EC50 ([1]; read-out: EC50) [nM]	Ki ([2]; read-out: Ki) [nM]	other results
COc1cncc(N2C[C@H]3C[C@@H]2CN3)c1	5700	0.12	Log EC50 [3]: -7.7; EC50 ([3]; read-out: EC50): 20 nM
c1ccc(N2C[C@@H]3C[C@H]2CN3)cc1		1000	
Clc1nnc(N2C[C@@H]3C[C@H]2CN3)c2ccccc12		1900	
c1csc(N2C[C@@H]3C[C@H]2CN3)n1		2300	
Fc1ccc(N2C[C@H]3C[C@@H]2CN3)cn1	160	0.028	EC50 ([1]; read-out: Log EC50 (converted)): 1.62 nM; Log EC50 [3]: -6.7; EC50 ([3]; read-out: EC50): 1.6 nM
c1cnnc(N2C[C@@H]3C[C@H]2CN3)c1		120	
c1ccc2ncc(N3C[C@@H]4C[C@H]3CN4)cc2c1		17	
COc1ccc(N2C[C@H]3C[C@@H]2CN3)cn1	850	0.25	
O=C1C2CC(CN2)N1c1ccc(Cl)nc1 (stereo not drawn)		> 10000	Ki ([2]; read-out: Log Ki (converted)): > 100000 nM
Fc1ccc(N2C[C@@H]3C[C@H]2CN3)cn1	3700	0.17	Ki ([2]; read-out: Log Ki (converted)): 0.141 nM; Log EC50 [3]: -7.72; EC50 ([3]; read-out: EC50): 19 nM
Cc1nsc(N2C[C@H]3C[C@@H]2CN3)n1		350	
Cc1cc(N2C[C@@H]3C[C@H]2CN3)nnc1Cl		3.8	
Oc1cncc(N2C[C@@H]3C[C@H]2CN3)c1	> 100000	4	Log EC50 [3]: -7.6; EC50 ([3]; read-out: EC50): 28 nM
CCN1C[C@@H]2C[C@H]1CN2c1ccc(Cl)nc1		34	
c1cncc(N2CC3CNC(C3)C2)c1 (stereo not drawn)	72	0.047	
O=S(=O)(c1cnc(Cl)c(Br)c1)N1C[C@H]2C[C@@H]1CN2		17	
c1cncc(CN2C[C@H]3C[C@@H]2CN3)c1		56	
O=[N+]([O-])c1ccc(N2C[C@@H]3C[C@H]2CN3)cn1	11000	110	
